Reference: ChEMBL document CHEMBL1137168, “Tubulin inhibitors. Synthesis and biological activity of HTI-286 analogs with B-segment heterosubstituents” (Bioorg Med Chem Lett, 2004)

How the values were obtained:
KB 3-1 [1] = experiment: Compound was tested for the cytotoxicity against KB-3-1 cell line; format: functional, cell-based; details: Homo sapiens
KB [2] = experiment: Compound was tested for the cytotoxicity against KB-8-5 cell line expressing P-glycoprotein; format: functional, cell-based; details: Homo sapiens
Tubulin = experiment: Compound was evaluated for the inhibition of MAP-rich tubulin polymerisation at 0.3 uM
KB-V1 (Homo sapiens) = experiment: Compound was tested for the cytotoxicity against KB-V1 cell line expressing P-glycoprotein
KB 3-1 [3] = experiment: Compound was tested for the cytotoxicity against KB-3-1 cell line; value ranges from 2-6 nM; format: functional, cell-based; details: Homo sapiens
KB [4] = experiment: Compound was tested for the cytotoxicity against KB-8-5 cell line expressing P-glycoprotein; value ranges from 30-80 nM; format: functional, cell-based; details: Homo sapiens
KB 3-1 [5] = experiment: Compound was tested for the cytotoxicity against KB-3-1 cell line; value ranges from 0.6-2 nM; format: functional, cell-based; details: Homo sapiens
KB [6] = experiment: Compound was tested for the cytotoxicity against KB-8-5 cell line expressing P-glycoprotein; value ranges from 1.2-5 nM; format: functional, cell-based; details: Homo sapiens

Row | SMILES | IC50 (KB 3-1 [1]) [nM] | IC50 (KB [2]) [nM] | inhibition (Tubulin) [%] | IC50 (KB-V1 (Homo sapiens)) [nM] | IC50 (KB 3-1 [3]) [nM] | IC50 (KB [4]) [nM] | IC50 (KB 3-1 [5]) [nM] | IC50 (KB [6]) [nM]
1 | CN[C@H](C(=O)N[C@H](C(=O)N(C)[C@H](/C=C(\C)C(=O)O)C(C)C)C(C)(C)O)C(C)(C)c1ccccc1 | 57.9 | 95 | 84 | > 3000 | – | – | – | –
2 | CN[C@H](C(=O)N[C@H](C(=O)N(C)[C@H](/C=C(\C)C(=O)O)C(C)C)C(C)O)C(C)(C)c1ccccc1 (some centres not stated) | 275 | 692 | 91 | > 3000 | – | – | – | –
3 | CN[C@H](C(=O)N[C@H](C(=O)N(C)[C@H](/C=C(\C)C(=O)O)C(C)C)C(C)(C)[S+](C)[O-])C(C)(C)c1ccccc1 (some centres not stated) | > 3000 | > 3000 | 43 | > 3000 | – | – | – | –
4 | CN[C@H](C(=O)N[C@H](C(=O)N(C)[C@H](/C=C(\C)C(=O)O)C(C)C)C(C)(C)c1ccc(OC)cc1)C(C)(C)c1ccccc1 | 25.5 | 54.9 | 56 | 1790 | – | – | – | –
5 | CN[C@H](C(=O)N[C@H](C(=O)N(C)[C@H](/C=C(\C)C(=O)O)C(C)C)C(C)(C)S(C)(=O)=O)C(C)(C)c1ccccc1 | 178 | 589 | 87 | > 3000 | – | – | – | –
6 | CN[C@H](C(=O)N[C@H](C(=O)N(C)[C@H](/C=C(\C)C(=O)O)C(C)C)C(C)OC)C(C)(C)c1ccccc1 (some centres not stated) | 871 | 1740 | 95 | > 3000 | – | – | – | –
7 | CN[C@H](C(=O)N[C@H](C(=O)N(C)[C@H](/C=C(\C)C(=O)O)C(C)C)C(C)(C)F)C(C)(C)c1ccccc1 | 1.6 | 3.5 | 91 | 117 | – | – | – | –
8 | CN[C@H](C(=O)N[C@H](C(=O)N(C)[C@H](/C=C(\C)C(=O)O)C(C)C)C(C)(C)SCc1ccc(OC)cc1)C(C)(C)c1ccccc1 | 58.8 | 93.7 | 94 | 2290 | – | – | – | –
9 | CN[C@H](C(=O)N[C@@H](C(=O)N(C)[C@H](/C=C(\C)C(=O)O)C(C)C)C(C)O)C(C)(C)c1ccccc1 (some centres not stated) | > 3000 | > 3000 | 9 | > 3000 | – | – | – | –
10 | CN[C@H](C(=O)N[C@H](C(=O)N(C)[C@H](/C=C(\C)C(=O)O)C(C)C)C(C)(C)SC)C(C)(C)c1ccccc1 | 1.2 | 2.2 | – | 144 | – | – | – | –
11 | CC(=O)O[C@H]1C(=O)[C@@]2(C)[C@H]([C@H](OC(=O)c3ccccc3)[C@]3(O)C[C@H](OC(=O)[C@H](O)[C@@H](NC(=O)c4ccccc4)c4ccccc4)C(C)=C1C3(C)C)[C@]1(OC(C)=O)CO[C@@H]1C[C@@H]2O [PACLITAXEL] | – | – | – | > 3000 | 6 | 80 | – | –
12 | CN[C@H](C(=O)N[C@H](C(=O)N(C)[C@H](/C=C(\C)C(=O)O)C(C)C)C(C)(C)SC)C(C)(C)c1ccc(OC)cc1 | 0.64 | 1.8 | 88 | 62.4 | – | – | – | –
13 | CN[C@H](C(=O)N[C@H](C(=O)N(C)[C@H](/C=C(\C)C(=O)O)C(C)C)C(C)(C)C)C(C)(C)c1ccccc1 [TALTOBULIN] | – | – | – | – | – | – | 2 | 5
14 | CN[C@H](C(=O)N[C@H](C(=O)N(C)[C@H](/C=C(\C)C(=O)O)C(C)C)C(C)(C)SCc1ccc(OC)cc1)C(C)(C)c1ccc(OC)cc1 | 15.8 | 43.7 | 77 | 2090 | – | – | – | –
